Assay results: patent publication US20140221469A1, “PHYTOCANNABINOIDS FOR USE IN THE TREATMENT OF CANCER” (Otsuka Pharmaceutical Co., Ltd., priority 2011, published 2014)
pIC50: −log10 of the molar value. Read-outs that look alike come from different tables or passages of the source.

Experiments:
[1] = tested on: recurrent glioblastoma multiforme; conditions: nine patients, intra-tumoural; 95% confidence interval: 15-33; cited from earlier work
[2] = tested on: human breast cell line MDA MB 231; assay: Migration in breast cell line MDA-MB 231; format: cell-based; conditions: MDA-MB 231 breast cell line
T98G cell line = assay: MTT test, T98G; format: cell-based, human; conditions: for Effect of pre-treatment with CB1 antagonist on anti-proliferative effect: AM251; for Effect of pre-treatment with CB2 antagonist on anti-proliferative effect: AM630
Method: (§1) To determine the effects of the phytocannabinoids upon cell viability, the applicants employed a MTT colorimetric assay ([3-(4,5-dimethyl-2-thiazolyl)-2,5-diphenyl-2H tetrazolium bromide]; Sigma-Aldrich). Briefly, U87 human glioma cells were seeded in a 96-well flat bottom multi-well at a density of 8000 cells/well. After 24 h, cells were treated with THCV, CBDV and CBG and/or receptor antagonists at the indicated concentrations. At the end of the incubation with the drugs, MTT (0.5 mg/ml final concentration) was added to each well and the incubation was then continued for 4 h. The insoluble formazan crystals were solubilized by the addition of 100 μl of 100% dimethyl sulfoxide. The plates were read at 570 nm using an automatic microtiter plate reader.
(§2) In a further set of experiments, Examples 8-10 the compounds were evaluated on a different cell line, T98G, which was obtained from the American Type Culture Collection (Rockville, USA). The protocols employed were as described above.

U87 cells [3] = assay: Evaluation of apoptosis (propidium iodide flow cytometry), U87; format: cell-based, human; conditions: 24 h
Method: 3.4×10^5 tumour cells were cultured in 6 well-plates in the presence or absence of CBDV or THCV for 24 h, as described above and the percentage of apoptotic cells on the total cell population (adhering/detached cells) was evaluated. Briefly, cells were collected, washed, and centrifuged at 1300 rpm. They were then fixed in ethanol 70% for at least 30 min at −20° C. After centrifugation, the cell pellet was gently re-suspended in 1 ml of PBS solution containing propidium iodide (PI, 50 μg/ml) and RNAse (20 μg/ml). Cells were analyzed after a minimum of 30 min of incubation in the dark at room temperature, and apoptosis was detected in individual cells using a flow cytometer (equipped with a single 488-nm argon laser; BD Biosciences, San Jose, Calif.) by reduced fluorescence of PI in apoptotic nuclei.

T98G glioma cells [4] = assay: Cell migration (Boyden chamber), T98G; format: cell-based, human; conditions: for Inhibition of migration of the cells: irrespective of the concentration used
Method: (§3) BD BioCoat Control Inserts (BD, USA) were used to examine the ability of U87-MG cells to migrate through an 8.0 micron pore size PET membrane. U87-MG cells (2.5×10^4 cells) were re-suspended in 500 μl of serum-free medium in presence of phytocannabinoids, and added to the upper chamber. The lower chamber was filled with 0.75 ml of complete medium as chemo-attractant. Cells were then incubated for 22 h at 37° C. After removal of cells on the upper surface of the membrane, cells on the lower surface were fixed in 100% methanol and stained with Diff-Quick stain (Medion Diagnostics, USA). Sixteen fields of cells were counted randomly in each well under a light microscope at 200× magnification. Data was expressed as the percentage of migrating cells as compared with the control. All the experiments were performed in triplicates and results were expressed as mean±SEM of three independent experiments.
as §2
The effect of CBDV on T98G glioma cells invasion and motility was determined by Boyden chamber assay.

U87 human glioma cells = assay: MTT colorimetric cell viability assay, U87; format: cell-based; conditions: for pIC50: Homo sapiens, U-87 MG, 24 h, read-out: IC50, drop of mitochondrial oxidative metabolism (MTT test); for Effect on tumour cell viability (MTT test), alone / Effect of CB1 antagonist on inhibition of cell proliferation / Effect of CB2 antagonist on inhibition of cell proliferation / Effect of TRPV1 vanilloid antagonist on inhibition of cell proliferation: U87; for Effect of CB1 antagonist on inhibition of cell proliferation: AM 251 (0.5 μM) added; for Effect of CB2 antagonist on inhibition of cell proliferation: SR 144528 (0.5 μM) for CBG, AM630 (0.5 μM) for CBDV; for Effect of TRPV1 vanilloid antagonist on inhibition of cell proliferation: capsazepine (0.625 μM) added
Method: The human glioma cell line U87-MG was obtained from the American Type Culture Collection (Rockville, USA). Cells were maintained in DMEM supplemented with 10% heat-inactivated foetal bovine serum (Euroclone, Italy), 1% glutamine, 1% antibiotic mixture, 1% sodium pyruvate, 1% non-essential amino acids, at 37° C. in a humidified 5% CO2 atmosphere. Cells were seeded in complete medium. After a 24 h incubation, the medium was replaced by serum-free medium (ITSS medium), consisting of DMEM supplemented with 5 μg/ml insulin, 5 μg/ml transferrin, and 5 […].
as §1

T98G cell = assay: Trypan Blue test, T98G; format: cell-based, human
Method: To further confirm the ability of CBDV, CBG and THCV to inhibit T98G cell growth, a Trypan Blue test was also conducted.

U87-MG cells = assay: Cell motility assay (Boyden chamber), U87-MG; format: cell-based, human
Method: as §3
The effect of THCV on U87 glioma cells invasion and motility was determined by Boyden chamber assay. […] The effect was even evident at concentrations as low as 0.25 μM.

T98G glioma cells [5] = assay: Matrigel invasion assay, T98G; format: cell-based, human
Method: (§4) BD BioCoat matrigel invasion chambers (BD, USA) were used to examine the ability of U87 cells to penetrate the extracellular matrix. U87 cells (2.5×10^4 cells) were re-suspended in 500 μl of serum-free medium in the presence of the phytocannabinoids, and added to the upper chamber. The lower chamber was filled with 0.75 ml of complete medium as chemo-attractant. Cells were then incubated for 22 h at 37° C. After removal of cells on the upper surface of the membrane, cells on the lower surface were fixed in 100% methanol and stained with Diff-Quick stain (Medion Diagnostics, USA). Sixteen fields of cells were counted randomly in each well under a light microscope at 200× magnification. Data was expressed as the percentage of invasive cells as compared with the control. All the experiments were performed in triplicates and results were expressed as mean±SEM of three independent experiments.
as §2
The matrigel invasion assay was carried out to further examine the effect of the CBDV on the invasiveness of T98G glioma cells.

U87 cells [6] = assay: Matrigel cell invasion assay, U87; format: cell-based, human
Method: as §4
The matrigel invasion assay was carried out to further examine the effect of THCV on the invasiveness on U87 glioma cells.

U87 glioma cells = conditions: Boyden chamber; cited from earlier work
[7] = tested on: subcutaneously implanted U87 human glioma cells; conditions: nude mice, subcutaneous, 0.5 mg/mouse; cited from earlier work
[8] = Homo sapiens, 24 h, read-out: IC50, drop of mitochondrial oxidative metabolism (MTT test)

## CCCCCc1cc(O)c2c(c1)OC(C)(C)[C@@H]1CCC(C)=C[C@@H]21 [THC, Tetrahydrocannabinol]
[1]
  Median survival from the beginning of cannabinoid administration: 24 weeks

## CCCCCc1cc2c(c(O)c1C(=O)O)[C@@H]1C=C(C)CC[C@H]1C(C)(C)O2 [THCA, Tetrahydrocannabinolic acid]
[2]
  Effect on migration: inhibit migration in a statistically significant manner

## CCCc1cc(O)c2c(c1)OC(C)(C)[C@@H]1CCC(C)=C[C@@H]21 [THCV, Tetrahydrocannabivarin]
T98G cell line
  Effect of pre-treatment with CB1 antagonist on anti-proliferative effect: unaffected
  Effect of pre-treatment with CB2 antagonist on anti-proliferative effect: unaffected
T98G cell line; [8]
  pIC50: 4.79
U87 cells [3]; 5 μM
  Apoptosis, alone: did not cause any apoptosis
U87 cells [3]; 10 μM
  Apoptosis, alone: did not cause any apoptosis
T98G glioma cells [4]
  Inhibition of migration of the cells: about 50%
U87 human glioma cells
  pIC50: 4.86
  Effect of CB1 antagonist on inhibition of cell proliferation: none of the antagonists was effective in reversing and/or potentiating the effect
  Effect of CB2 antagonist on inhibition of cell proliferation: none of the antagonists was effective in reversing and/or potentiating the effect
  Effect of TRPV1 vanilloid antagonist on inhibition of cell proliferation: none of the antagonists was effective in reversing and/or potentiating the effect
U87 human glioma cells; 5 μM
  Effect on tumour cell viability (MTT test), alone: ineffective
U87 human glioma cells; 10 μM
  Effect on tumour cell viability (MTT test), alone: effective
T98G cell
  Cell viability, Trypan Blue test: inhibited cells viability in the same dose range as for MTT test
U87-MG cells
  Concentration as low as which the anti-migratory effect was evident: 0.25 µM
U87-MG cells; irrespectively of the concentrations used, 22 h
  Inhibition of migration of the cells: 55%
T98G glioma cells [5]
  Effect on cell invasion: U-shaped dose-response curve
U87 cells [6]; Homo sapiens, U-87 MG, read-out: Inhibition of cell invasiveness
  inhibition at 5 µM: 55%
U87 cells [6]; U87, 0.5 and 1 μM
  Inhibition of cell invasiveness: about 35%

## CCCCCc1cc(O)c(C/C=C(\C)CCC=C(C)C)c(O)c1 [CBG, Cannabigerol]
T98G cell line
  Effect of pre-treatment with CB1 antagonist on anti-proliferative effect: unaffected
  Effect of pre-treatment with CB2 antagonist on anti-proliferative effect: unaffected
T98G cell line; [8]
  pIC50: 4.76
T98G glioma cells [4]
  Effect on cell migration: did not inhibit
U87 human glioma cells
  pIC50: 4.92
  Effect of CB1 antagonist on inhibition of cell proliferation: able to antagonize the inhibitory action of the phytocannabinoid on glioma cells growth only at 19 and 25 μM concentrations
  Effect of CB2 antagonist on inhibition of cell proliferation: failed to antagonize the anti-proliferative effect
  Effect of TRPV1 vanilloid antagonist on inhibition of cell proliferation: failed to antagonize the anti-proliferative effect
T98G cell
  Cell viability, Trypan Blue test: inhibited cells viability in the same dose range as for MTT test
U87-MG cells
  Effect on cell migration: did not inhibit
T98G glioma cells [5]
  Effect on cell invasion: did not inhibit
U87 cells [6]; U87
  Effect on cell invasion: did not inhibit

## C=C(C)[C@@H]1CCC(C)=C[C@H]1c1c(O)cc(CCCCC)c(C(=O)O)c1O [CBDA, Cannabidiolic acid]
[2]
  Effect on migration: inhibit migration in a statistically significant manner

## C=C(C)[C@@H]1CCC(C)=C[C@H]1c1c(O)cc(CCCCC)cc1O [CBD, Cannabidiol, reference compound]
U87 cells [3]; 5 μM
  Apoptosis, alone: did not cause any apoptosis
U87 cells [3]; 9 μM
  Apoptosis, alone: significant induction of apoptosis
U87 human glioma cells; 5 μM
  Effect on tumour cell viability (MTT test), alone: ineffective
U87 human glioma cells; 9 μM
  Effect on tumour cell viability (MTT test), alone: effective
U87 glioma cells
  Migration of U87 glioma cells: concentration-dependent inhibition
[7]
  Growth of subcutaneously implanted U87 human glioma cells: significantly inhibited the growth

## C=C(C)[C@@H]1CCC(C)=C[C@H]1c1c(O)cc(CCC)cc1O [CBDV, Cannabidivarin]
T98G cell line; 24 h after cannabinoid exposure
  pIC50: 4.57
T98G cell line
  Effect of pre-treatment with CB1 antagonist on anti-proliferative effect: exhibited some sensitivity
  Effect of pre-treatment with CB2 antagonist on anti-proliferative effect: exhibited some sensitivity
T98G cell line; Homo sapiens, 24 h, read-out: IC50, drop of mitochondrial oxidative metabolism (MTT test), T98G, 24 h after cannabinoid exposure
  pIC50: 4.57
T98G glioma cells [4]
  Concentration as low as which the anti-migratory effect was evident: 0.5 µM
  Inhibition of migration of the cells: 55%
U87 human glioma cells
  pIC50: 4.62
  Effect of CB1 antagonist on inhibition of cell proliferation: able to significantly increase the inhibitory action of CBDV on glioma cell growth at 19, 40, and 50 μM concentrations
  Effect of CB2 antagonist on inhibition of cell proliferation: able to significantly increase the inhibitory action of CBDV on glioma cell growth at 19, 40, and 50 μM concentrations
  Effect of TRPV1 vanilloid antagonist on inhibition of cell proliferation: a significant increase of the inhibitory action of CBDV was seen only at 14 and 19 μM
T98G cell
  Cell viability, Trypan Blue test: inhibited cells viability in the same dose range as for MTT test
U87-MG cells
  Concentration as low as which the anti-migratory effect was evident: 1 µM
  Effect on cell migration: significantly inhibited the migration
T98G glioma cells [5]; concentration range from 0.5 to 12 μM
  Inhibition of cell invasiveness: about 70%
U87 cells [6]; U87
  Concentration as low as which the anti-invasive effect was evident: 1 µM
U87 cells [6]; U87, across the concentrations tested
  Decrease of the number of invading cells, average effect: 45%
